Assay results reported in patent US4963581A, “Naphthopyran derivatives and use thereof” (Takeda Chemical Industries, Ltd., priority 1988, dated 1990).
pIC50: −log10 of the molar value.

Columns and labels:
[1] = target: T1, Human placental aromatase (Homo sapiens, UniProt P11511); assay: In vitro human placental aromatase inhibiting activity; assay type: biochemical; conditions: substrate androstenedione 4 μM, 37° C., 1 hour
T1 construct: the pellet thus obtained was used as a microsome fraction; from tissue; host or cells: human placenta, microsome fraction
T1 sequence (P11511 1-503): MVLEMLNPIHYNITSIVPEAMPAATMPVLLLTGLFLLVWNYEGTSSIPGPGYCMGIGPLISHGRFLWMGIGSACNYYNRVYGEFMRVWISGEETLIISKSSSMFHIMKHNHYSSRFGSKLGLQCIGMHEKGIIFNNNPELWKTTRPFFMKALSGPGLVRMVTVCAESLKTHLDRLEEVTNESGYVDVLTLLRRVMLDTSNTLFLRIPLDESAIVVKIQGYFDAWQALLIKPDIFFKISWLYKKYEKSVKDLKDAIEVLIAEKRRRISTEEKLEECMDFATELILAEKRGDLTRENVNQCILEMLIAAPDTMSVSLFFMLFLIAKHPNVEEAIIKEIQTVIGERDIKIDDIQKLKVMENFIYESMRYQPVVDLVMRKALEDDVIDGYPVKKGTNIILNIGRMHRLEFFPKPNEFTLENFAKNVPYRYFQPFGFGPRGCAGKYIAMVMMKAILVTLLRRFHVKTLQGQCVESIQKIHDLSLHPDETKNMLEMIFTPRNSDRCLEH
Procedure: Preparation of human placental microsome:
The method of F. A. Thompson et al. [Journal of Biological Chemistry, 249, 5364 (1974)]was partly modified. Thus, a placenta was washed with cooled 0.15 M KCl and, after removal of adhering membranes and great blood vessels, minced to sufficiently small pieces by means of scissors. To the minced tissue was added cold 0.02 M phosphate buffer (pH 7.4) containing 0.25 M sucrose in an amount of 1 ml per 1 g of tissue, the mixture was homogenized with a Polytron homogenizer (30 seconds, three times, in ice) and then centrifuged at 800×g for 10 minutes, the supernatant was subjected to centrifugation at 20,000×g for 30 minutes, followed by further centrifugation at 148,000×g for 45 minutes, and the pellet thus obtained was used as a microsome fraction. The microsome obtained was suspended in the same phosphate buffer as mentioned above in a concentration corresponding to 10 g of wet placenta per ml. The suspension was stored at -80° C. and, just prior to use, diluted 5 to 6 times.
Aromatase activity measurement and inhibitory activity:
The method of F. A. Thompson et al. (vide supra) was partly modified as follows:
A reaction solution ([…]) containing 4 μM 4-androstene-3,17-dione, 140,000 dpm, 1,2[^3 H]-androstenedione, 550 μM NADPH, 20 μl of the above microsome and 5 μl of buffer or 5 μl of an inhibitor-containing solution was incubated at 37° C. for 1 hour. In this measurement system, aromatization of androstenedione gives [^3 H]--H2 O. Therefore, this reaction mixture was extracted with 0.5 ml of chloroform for separation, the aqueous layer obtained was treated with 0.25 ml of 5% active carbon for removal of free steriods and then subjected to low speed centrifugation. A scintillator (3 ml) was added to 0.2 ml of the supernatant, and the radioactivity was measured by means of a liquid scintillation counter. The percent inhibition (%) was determined by comparing the result thus obtained with the result for a control sample as obtained without adding any inhibitor. The activity was expressed in terms of IC50 (μg/ml), namely the inhibitor concentration required for 50% inhibition of the enzyme activity at the substrate (androstenedione) concentration of 4 μM.

estrogen synthesis = assay: Estrogen synthesis inhibition in rats (PMSG-stimulated); assay type: in vivo, young SD rats; conditions: Test I, 4 days, Mean ± SD; for Plasma estradiol-17β level: PMSG control 568.6 ± 69.7
Procedure: Groups of five young SD rats ([…], 19 days old) were used. Test groups were administered subcutaneously with the test compounds suspended in 0.2% gum arabic-containing physiological saline in a dose of 25 mg/kg or 50 mg/kg at 24-hour intervals for consecutive 4 days. Non-test groups (control groups […]) were administered with 0.2 ml of 0.2% gum arabic-containing physiological saline. On the third day after initiation of the test, a single dose of pregnant mare serum gonadotropin (PMSG) was administered subcutaneously in a dose of 10 U/rat to the test groups and to the control group 2, following the administration of the test compounds. […] The plasma samples thus obtained were subjected to plasma estradiol-17B level determination by radioimmunoassay. The uterus and ovaries were excised from each rat and, after removal of superfluous connective tissues, weighed. The results thus obtained are shown in Table 2.4-Hydroxyandrostenedione (4-OHA) was used as a reference compound for the pharmacological effect evaluation.
*P < 0.05, **P < 0.02, ***P < 0.01, ****<0.001 against PMSG group

SMILES | pIC50 [1] | also measured
CCOC1=C(C2=C(OCC)C(=O)c3cc4c(c(O)c3C2=O)C(=O)OC(C)C4)C(=O)c2c(cc3c(c2O)C(=O)OC(C)C3)C1=O (centres unmarked) [Compound 9] | 4.39 | 
COC1=C(C2=C(OC)C(=O)c3cc4c(c(OC)c3C2=O)C(=O)OC(C)C4)C(=O)c2c(cc3c(c2OC)C(=O)OC(C)C3)C1=O (centres unmarked) [Compound 13] | 4.77 | 
COC1=CC(=O)c2c(cc3c(c2O)C(=O)OC(C)C3)C1=O (centres unmarked) [Compound 14] | 5.56 | 

Now from value to compound, other results behind:

pIC50 [1] | SMILES | also measured
4.30 | COc1cc2cc3c(c(O)c2c(O)c1C1=C(N)C(=O)c2cc4c(c(O)c2C1=O)C(=O)OC(C)C4)C(=O)OC(C)C3 (centres unmarked) [Compound 7] | Tissue weight, Ovaries (estrogen synthesis; 25 mg/kg/day s.c.): 31.2 ± 8.5 mg; Tissue weight, Uterus (estrogen synthesis; 25 mg/kg/day s.c.): 94.1 ± 5.5 mg; Plasma estradiol-17β level (estrogen synthesis; 25 mg/kg/day s.c.): 323.4 ± 161.2 pg/mL; Tissue weight, Ovaries (estrogen synthesis; 50 mg/kg/day s.c.): 27.7 ± 2.7 mg; Tissue weight, Uterus (estrogen synthesis; 50 mg/kg/day s.c.): 110.0 ± 14.9 mg; Plasma estradiol-17β level (estrogen synthesis; 50 mg/kg/day s.c.): 206.3 ± 54.8 pg/mL
4.54 | CCOC1=C(C2=C(OC)C(=O)c3cc4c(c(O)c3C2=O)C(=O)OC(C)C4)C(=O)c2c(cc3c(c2O)C(=O)OC(C)C3)C1=O (centres unmarked) [Compound 8] | 
4.29 | CCOC1=C(C2=C(O)C(=O)c3cc4c(c(O)c3C2=O)C(=O)OC(C)C4)C(=O)c2c(cc3c(c2O)C(=O)OC(C)C3)C1=O (centres unmarked) [Compound 10] | 
3.36 | CNC1=C(C2=C(NC)C(=O)c3cc4c(c(O)c3C2=O)C(=O)OC(C)C4)C(=O)c2c(cc3c(c2O)C(=O)OC(C)C3)C1=O (centres unmarked) [Compound 11] | 
4.98 | CNC1=C(C2=C(NC)C(=O)c3cc4c(c(O)c3C2=O)C(=O)OC(C)C4)C(=O)c2c(cc3c(c2O)C(=O)OC(C)C3)C1=O (centres unmarked) [Compound 12] | 
